Data taken from US10849875B2, “Cancer specific lipid targeted peptidomimetics” (University of Houston System, priority 2015, dated 2020).
Entries after “also recorded” stand apart in the source; their conditions may differ. Positions of bridges follow the written chain, without caps; N, C: chain ends. Non-standard residues stand in square brackets, D forms with d. Residues, ends and D or L forms follow the SMILES beside them. Chains are numbered I, II in the order given. Gly(N-piperonyl) = O=C(O)CNCc1ccc2c(c1)OCO2; N(4-MeOBn)Gly = COc1ccc(CNCC(=O)O)cc1; Nrpe = C[C@@H](NCC(=O)O)c1ccccc1; Nlys = NCCCCNCC(=O)O

What was measured:
HCC4017 cells = test: FACS binding assay; design: species or system human
Experimental: FACS binding assays were conducted to further quantify the binding event of the PPS1 monomer and PPS1D1 dimer.

[1] = Membrane lipid array (lipid dot blot); format: binding
Experimental: (FIGS. 11A and 11B). […] All of the bound lipids PS, PA, PI and PG have an overall negative charge as compared to unbound PC, PE and SM, which are neutral. This extra negative charge is responsible for interacting with positively charged region of PPS1, while the hydrophobic regions of both PPS1 and lipids may interact through van der Waals forces. […] The membrane was first blocked with 3% BSA in TBS-T for 1 hr. After washing with TBS-T, 2.5 μg/ml of biotin labeled PPS1D1 was added. Binding of biotin-PPS1D1 was detected by immunoblotting with streptavidin-HRP antibody. […] The binding affinity of PPS1D1 to PS appears to be strongest among all phospholipids as even at low lipid concentrations, PPS1D1 efficiently binds to it. (FIG. 11D). […] It is well documented that these phospholipids are predominantly present in the inner leaflet in normal cells. […] PC, PE, SM and PS are the most abundant phospholipids. Among these, only PS is an anionic phospholipid. PC and SM are present mostly in the outer leaflet, whereas PE and PS occupy most of inner leaflet with a variety of other anionic phospholipids. However, in stress conditions and in most tumor studied to date, PS and PE flip to the outer leaflet. PPS1D1 has six positively charged residues along with a hydrophobic region. […] However the binding affinity of PPSD1 to these anionic phospholipids is different. […] PPS1D1 could have a structure beyond a simple linear sequence contributing various levels of binding to PS, PA, PI and PG, maintaining highest binding affinity to PS.
Membrane lipid array: Membrane lipid arrays were purchased from Echelon Biosciences. Membranes were blocked in 3% BSA in TBS-T for one hour then incubated with 2.5 μg/ml of biotin-PPS1D1 for two hours. After washing unbound peptoid using TBS-T, bound biotin-PPS1D1 was detected by immunoblotting with Streptavidin-HRP antibody at 1:750 dilution (BioLegend).
One of the major questions arising at this point is how PPS1 or PPS1D1 specifically recognizes PS over PC, as both lipids have negatively charged phosphate head groups. To address this specificity concern, ELISA-like binding assay were expanded to include other membrane phospholipids such as phosphatidylethanolamine (PE), sphingomyelin (SM), phosphatidic acid (PA), phosphatidylinositol (PI) and phosphatidylglycerol (PG). […] This additional negative charge can be responsible for the interaction with the positively charged region of PPS1 or PPS1D1, while the hydrophobic regions of PPS1 or PPS1D1 may interact with hydrophobic tail groups of the lipids through van der Waals forces. […] The membrane was treated with biotin labeled PPS1D1 and binding was detected by immunoblotting with streptavidin-HRP. […] It has been reported that PS can form a bilayer lamellar and reverse hexagonal phase. PS is mainly in a lamellar phase after hydration at physiological pH. By validating our binding through an ELISA-like assay and liposomes, PPS1D1 has an equal opportunity to bind to each phase of PS.
Membrane lipid arrays were purchased from Echelon Biosciences, UT. Membranes were blocked in 3% BSA in TBST for 1 hour and then incubated with 2.5 μg/ml of biotin-PPS1D1 for 2 hours. Membranes were washed with TBST and incubated with Streptavidin-HRP antibody at 1:750 dilutions (BioLegend,CA). After washing, signal was detected with ECL western blotting substrate (Life technologies, CA) using Fluorchem 8900 (Alpha Innotech Imaging system).

HBEC30KT cells = test: Cell staining with Hoechst 33342 and propidium iodide (membrane integrity); format: cell-based, human; settings: 20 μM
Experimental: (§1) It was evaluated how PPS1D1 affects viability of these PS expressing cancer cell lines. While there are difficulties of narrowing down the exact mechanism of action of a compound targeting cell membrane lipids, whether PPS1D1 has any effect on cell membrane integrity was evaluated. Cells were treated with standard DNA staining dyes Propidium iodide (PI) and Hoechst 33342. While both bind DNA, only Hoechst is cell permeable. Therefore, when treating live cells only Hoechst will stain the nucleus while PI will stain the nucleus only if the cell membrane integrity is compromised. All the lung cancer cell lines and normal HBEC30KT cells were treated with these dyes in the presence of PPS1D1 (at 1 μM and 20 μM) or a control compound PC462D1 at 20 μM and evaluated fluorescence by microscopy without fixation. […] These observations indicate that 20 μM PPS1D1 is selectively cytotoxic to PS-positive lung cancer cells.
(§2) 10,000 cells of HCC4017, H460, HCC95, H1693,H1395 and HBEC30KT were plated on chamber slides (Lab-Tek, Thermo Fisher, MA). On second day, cells were treated with PPS (1 μM and 20 μM), control PC462D1 (20 μM) and 0.005% Benzalkonium chloride (BAC) in RPMI medium with 10% FBS containing 3% BSA (KSFM media with 3% BSA for HBEC30KT). Chamber slides were washed with PBS three times. Cells were then stained with Hoechst 33342 (10 μg/ml) for 30 min in dark. Chamber slides were washed with 3× PBS. Cells were then stained with propidium iodide (1 mg/ml) for 15 mins. Cells were washed with 3× PBS and imaged using Fluorescence Microscope (Olympus BX-53).

[2] = test system: HCC4017, H460, HCC95, H1693, H1395 lung cancer cell lines; test: as above; format: cell-based, human
Experimental: as §1, §2

[3] = 2.5 μg/ml biotin labeled PPS1D1
[4] = 2.5 μg/ml biotin labeled PPS1D1, listed as PPSD1

COc1ccc(CN(CC(=O)N(CCCCN)CC(=O)N[C@@H](CCCCN)C(=O)N[C@H](CCCCN)C(=O)N[C@@H](CCSC)C(=O)NCCCC[C@H](NC(=O)[C@H](CCSC)NC(=O)[C@@H](CCCCN)NC(=O)[C@H](CCCCN)NC(=O)CN(CCCCN)C(=O)CN(Cc2ccc(OC)cc2)C(=O)CN(C(=O)CN(Cc2ccc3c(c2)OCO3)C(=O)CN[C@H](C)c2ccccc2)[C@H](C)c2ccccc2)C(N)=O)C(=O)CN(C(=O)CN(Cc2ccc3c(c2)OCO3)C(=O)CN[C@H](C)c2ccccc2)[C@H](C)c2ccccc2)cc1 [PPS1D1] (I: H-[Nrpe][Gly(N-piperonyl)][Nrpe][N(4-MeOBn)Gly][Nlys]K[dK]MK-NH2 / II: H-[Nrpe][Gly(N-piperonyl)][Nrpe][N(4-MeOBn)Gly][Nlys]K[dK]M; amide I:9-II:C; N-terminus assumed)
improvement of binding of dimeric version over PPS1 (HCC4017 cells): about 175 fold
Kd (HCC4017 cells; FACS): 0.08 µM
binding to DAG [1, 3]: did not show binding; also recorded: does not bind
binding to PA [1, 3]: a little weaker binding
binding to PC [1, 3]: does not bind
binding to PE [1, 3]: does not bind
binding to PG [1, 3]: weaker binding
binding to PI [1, 3]: weaker binding
binding to PS [1, 3]: strongest binding affinity
binding to SM [1, 3]: does not bind
binding to PC [1, 4]: clearly not binding
binding to PE [1, 4]: clearly not binding
binding to PG [1, 4]: very weak level
binding to PI [1, 4]: very weak level
binding to SM [1, 4]: clearly not binding
PI staining of normal HBEC30KT cells (HBEC30KT cells): not observed
PI / Hoechst staining of lung cancer cells ([2]; 1 μM): only show staining with Hoechst dye
PI / Hoechst staining of lung cancer cells ([2]; 20 μM): staining of cells with PI
